Values quoted from earlier work, collected in paper PMC8878452, “A Tale of Toxin Promiscuity: The Versatile Pharmacological Effects of Hcr 1b-2 Sea Anemone Peptide on Voltage-Gated Ion Channels” (Marine Drugs, 2022).
Entries after “also recorded” stand apart in the source; their conditions may differ. Where two headings read alike, the source gives them in different places. Where no end group is shown, it is not given here.

How the values were obtained:
ASIC = tested on: ASIC; parameters: method as in 2 sources, one per row (each row's own in cited_ref): ref 17 = [17]; PMID 29684594; doi:10.1016/j.peptides.2018.04.013; 17. Kalina R. Gladkikh I. Dmitrenok P. Chernikov O. Koshelev S. Kvetkina A. Kozlov S. Kozlovskaya E. Monastyrnaya M. New APETx-like peptides from sea anemone Heteractis crispa modulate ASIC1a channels ||| ref 22 = [22]; PMID 15044953; doi:10.1038/sj.emboj.7600177; 22. Diochot S. Baron A. Rash L.D. Deval E. Escoubas P. Scarzello S. Salinas M. Lazdunski M. A new sea anemone peptide, APETx2, inhibits ASIC3, a major acid-sensitive channel in sensory neurons EMBO J.; settings: cited from earlier work
hERG = settings: cited from earlier work
Text: APETx1 are known to modulate hERG [21], Nav1.2–1.6, and Nav1.8 [20], while APETx2 modulates ASICs, Kv3.4, [22], and hERG [23], as well as Nav1.2, Nav1.6, and Nav1.8 [20]. APETx3 is known for interacting with Nav1.2–1.4, Nav1.6, DmNav1, BgNav1, and VdNav1 [20]. […] Previous studies have shown that F15, Y32, F33, and L34 seem to be key residues for the interaction between APETx1 and hERG, as they are located on the molecular surface of this peptide. Hcr 1b-2 shares the same residues in its sequence (Figure 1), which can explain the similar effect observed.

BgNav1 = settings: cited from earlier work; for effect on insect channel BgNav: printed BgNav
Text: (§1) APETx1 are known to modulate hERG [21], Nav1.2–1.6, and Nav1.8 [20], while APETx2 modulates ASICs, Kv3.4, [22], and hERG [23], as well as Nav1.2, Nav1.6, and Nav1.8 [20]. APETx3 is known for interacting with Nav1.2–1.4, Nav1.6, DmNav1, BgNav1, and VdNav1 [20]. […] Like Hcr 1b-2, APETx1 inhibits the mammalian Nav1.2–1.6 and Nav1.8 isoforms, while APETx2 acts on Nav1.2, Nav1.6, and Nav1.8.

Nav1.2 = settings: cited from earlier work
Text: as §1

Nav1.6 = settings: cited from earlier work
Text: as §1

Nav1.8 = settings: cited from earlier work
Text: as §1

Kv3.4 = tested on: Kv3.4; parameters: method as in 2 sources, ref 22 = [22]; PMID 15044953; doi:10.1038/sj.emboj.7600177; 22. Diochot S. Baron A. Rash L.D. Deval E. Escoubas P. Scarzello S. Salinas M. Lazdunski M. A new sea anemone peptide, APETx2, inhibits ASIC3, a major acid-sensitive channel in sensory neurons EMBO J. ||| ref 33 = [33]; PMID 16177043; doi:10.1523/JNEUROSCI.2119-05.2005; 33. Yeung S.Y. Thompson D. Wang Z. Fedida D. Robertson B. Modulation of Kv3 subfamily potassium currents by the sea anemone toxin BDS: Significance for CNS and biophysical studies J. Neurosci. 2005 25; settings: cited from earlier work
Nav channels = settings: cited from earlier work
Text: (§2) APETx1 and APETx2 are well-known sea anemone peptides that are characterized as sodium channel modulators. Like Hcr 1b-2, APETx1 inhibits the mammalian Nav1.2–1.6 and Nav1.8 isoforms, while APETx2 acts on Nav1.2, Nav1.6, and Nav1.8.

Nav1.1 = settings: cited from earlier work
Text: as §2

Nav1.7 = settings: cited from earlier work
Text: as §2

Nav1.3 = settings: cited from earlier work
Text: as §1

Nav1.4 = settings: cited from earlier work
Text: as §1

Nav1.5 = settings: cited from earlier work
Text: as §1

Kv1.3 = settings: cited from earlier work
Text: (§3) APETx1 are known to modulate hERG [21], Nav1.2–1.6, and Nav1.8 [20], while APETx2 modulates ASICs, Kv3.4, [22], and hERG [23], as well as Nav1.2, Nav1.6, and Nav1.8 [20]. APETx3 is known for interacting with Nav1.2–1.4, Nav1.6, DmNav1, BgNav1, and VdNav1 [20].

Kv1.4 = settings: cited from earlier work
Text: as §3

Kv1.5 = settings: cited from earlier work
Text: as §3

Kv2.1 = settings: cited from earlier work
Text: as §3

Kv10.1 = settings: cited from earlier work
Kv3.1 = settings: cited from earlier work
Text: (§4) The only targets in which Hcr 1b-2 was not active were Kv3.1 and Kv10.1 (Figure 2 and Figure 3). Among sea anemone toxins, BDS-I, from Anemonia sulcata, is a well-characterized toxin capable of inhibiting isoforms from the Kv3 family, being active on Kv3.1, Kv3.2, and Kv3.4 [33].

Kv3.2 = settings: cited from earlier work
Text: as §4

TTX-resistant isoforms = settings: cited from earlier work
Text: as §4

TTX-sensitive channels = settings: cited from earlier work
Text: as §4

DmNav1 = settings: cited from earlier work
Text: as §3

VdNav1 = settings: cited from earlier work
Text: as §3

Substance | effect on hERG (hERG) | effect on insect channel BgNav (BgNav1) | effect on Nav1.2 (Nav1.2) | effect on Nav1.6 (Nav1.6) | effect on Nav1.8 (Nav1.8) | effect on Kv3.4 (Kv3.4) | effect on Nav1.1 (Nav1.1) | effect on Nav1.7 (Nav1.7) | effect on Nav1.3 (Nav1.3) | effect on Nav1.4 (Nav1.4) | effect on Nav1.5 (Nav1.5) | other results
APETx2: APETx family peptide from Anthopleura elegantissima, UniProt P61542 (GTACSCGNSKGIYWFYRPSCPTDRGYTGSCRYFLGTCCTPAD; ends and bridges not checked; cysteine pairing not given here; UniProt P61542 1-42, looked up) | modulates | unaffected | modulates; also recorded: acts on | modulates; also recorded: acts on | modulates; also recorded: acts on | modulates | unaffected | unaffected |  |  |  | effect on ASICs (ASIC): modulates; modulation of voltage-dependence of Nav channels (Nav channels): did not modulate the voltage-dependence
APETx1: APETx family peptide from Anthopleura elegantissima, UniProt P61541 (GTTCYCGKTIGIYWFGTKTCPSNRGYTGSCGYFLGICCYPVD; ends and bridges not checked; cysteine pairing not given here; UniProt P61541 1-42, looked up) | modulate | unaffected | modulate; also recorded: inhibits | modulate; also recorded: inhibits | modulate; also recorded: inhibits |  | unaffected | unaffected | modulate; also recorded: inhibits | modulate; also recorded: inhibits | modulate; also recorded: inhibits | 
APETx4: APETx family peptide from Anthopleura elegantissima, UniProt C0HL40 (GTTCYCGKTIGIYWFGKYSCPTNRGYTGSCPYFLGICCYPVD; ends and bridges not checked; cysteine pairing not given here; UniProt C0HL40 1-42, looked up) |  |  |  | modulates |  |  |  |  |  | modulates | modulates | effect on Kv1.3 (Kv1.3): modulates; effect on Kv1.4 (Kv1.4): modulates; effect on Kv1.5 (Kv1.5): modulates; effect on Kv2.1 (Kv2.1): modulates; effect on Kv10.1 (Kv10.1): notorious Kv10.1 inhibitor; also recorded: non-selective Kv10.1 inhibitor
BDS-I: toxin from Anemonia sulcata, UniProt P11494 (AAPCFCSGKPGRGDLWILRGTCPGGYGYTSNCYKWPNICCYPH; UniProt P11494 1-43, looked up) |  |  |  |  |  | active |  |  |  |  |  | effect on Kv3.1 (Kv3.1): active; effect on Kv3.2 (Kv3.2): active; effect on TTX-resistant isoforms (TTX-resistant isoforms): weakly affected; effect on TTX-sensitive channels (TTX-sensitive channels): strongly enhances
APETx3: APETx family peptide from Anthopleura elegantissima, UniProt B3EWF9 (GTPCYCGKTIGIYWFGTKTCPSNRGYTGSCGYFLGICCYPVD; ends and bridges not checked; cysteine pairing not given here; UniProt B3EWF9 1-42, looked up) |  |  | interacting | interacting |  |  |  |  | interacting | interacting |  | effect on hERG (hERG; Thr3Pro substitution): abolishes the activity; effect on BgNav1 (BgNav1): interacting; effect on DmNav1 (DmNav1): interacting; effect on VdNav1 (VdNav1): interacting
